Like-named read-outs stand apart in the source and are kept apart here.
Assays:
IFNgamma = IFNgamma secretion assay in human PBMCs (PHA-M, ELISA); type: cell-based; details: for EC50: read-out: Inhibitory Activity EC50, IFNγ
Method: (§1) Fetal bovine serum (FBS) was obtained from ThermoFisher (Cat #16000044). • Other reagents: 96 well TC plates were obtained from ThermoFisher (Cat #07-2000-90).
(§2) IFN-gamma was assessed using a standard ELISA protocol. Cryopreserved PBMCs were thawed in a water bath and transferred to 50 mL polypropylene tubes. The cells were washed two times with 25 mL of RPMI medium supplemented with 5% of regular FBS and re-suspended at a density of 1.5^^6 cells/mL. The cells were plated into 96 well TC late (100 uL/well). Serially diluted compound was added to the cells in duplicate wells for each concentration. Control wells received DMSO only (0.3% final). The cells were pre-incubated with compound for 2 hr. After pre-incubation, the cells were stimulated by PHA-M (10 ug/mL) for 40 hr. Control samples with and without PHA-M in the absence of compound were assembled in each test plate. IFNg was detected in media supernatants by using a sandwich anti-IFNg ELISA kit (BD Biosciences) according to protocol provided by the manufacturer. ELISA readout (optical density at 450 nm) is commensurable with the amount of IFNg produced by the cells. Assay window was determined in each experiment by comparing average OD450 values in stimulated and un-stimulated samples in the absence of compound. ELISA calibration was performed in each detection plate using serially diluted recombinant human IFN gamma, to ensure that OD450 values for all test samples were within linear range of detection. %-Inhibition by compound was calculated using following equation:
where OD450100% is optical density in control samples stimulated with PHA-M without compound, OD4500% is optical density in unstimulated control samples, and OD450compound is optical density in a sample stimulated with PHA-M in the presence of compound.
The calculated %-Inh values were plotted against compound concentration. To determine IC50 values, dose-response curves were fitted by a 4-parameter sigmoid inhibition model using XLFit® software (IDBS).

IL10 = IL10 secretion assay in human PBMCs (PHA-M, ELISA); type: cell-based; details: for EC50: read-out: Inhibitory Activity EC50, IL10
Method: as §1
as §2, with “Cryopreserved” for “IFN-gamma was assessed using a standard ELISA protocol. Cryopreserved”, “IFNg was detected in media supernatants by using a sandwich anti-IFNg ELISA kit (BD Biosciences) according to protocol provided by the manufacturer.” left out, “IL10” for “IFNg”, “IL10 standard,” for “IFN gamma,”, “detection.%-Inhibition” for “detection. %-Inhibition”
where OD450100% is optical density in control samples stimulated with PHA-M without compound, OD4500% is optical density in unstimulated control samples, and OD450compound is optical density in a sample stimulated with PHA-M in the presence of compound. The calculated %-Inh values were plotted against compound concentration. To determine IC50 values, dose-response curves were fitted by a 4-parameter sigmoid inhibition model using XLFit® software (IDBS).

recombinant human LOX-5 = target: T1, recombinant human LOX-5 (Homo sapiens, UniProt P09917); test: Biochemical LOX-5 assay
T1 construct: expressed in insect cells (Amino Acids 1-674) was obtained from Cayman; purchased Cayman 60402; host or cells: insect cells
T1 sequence (P09917 1-674): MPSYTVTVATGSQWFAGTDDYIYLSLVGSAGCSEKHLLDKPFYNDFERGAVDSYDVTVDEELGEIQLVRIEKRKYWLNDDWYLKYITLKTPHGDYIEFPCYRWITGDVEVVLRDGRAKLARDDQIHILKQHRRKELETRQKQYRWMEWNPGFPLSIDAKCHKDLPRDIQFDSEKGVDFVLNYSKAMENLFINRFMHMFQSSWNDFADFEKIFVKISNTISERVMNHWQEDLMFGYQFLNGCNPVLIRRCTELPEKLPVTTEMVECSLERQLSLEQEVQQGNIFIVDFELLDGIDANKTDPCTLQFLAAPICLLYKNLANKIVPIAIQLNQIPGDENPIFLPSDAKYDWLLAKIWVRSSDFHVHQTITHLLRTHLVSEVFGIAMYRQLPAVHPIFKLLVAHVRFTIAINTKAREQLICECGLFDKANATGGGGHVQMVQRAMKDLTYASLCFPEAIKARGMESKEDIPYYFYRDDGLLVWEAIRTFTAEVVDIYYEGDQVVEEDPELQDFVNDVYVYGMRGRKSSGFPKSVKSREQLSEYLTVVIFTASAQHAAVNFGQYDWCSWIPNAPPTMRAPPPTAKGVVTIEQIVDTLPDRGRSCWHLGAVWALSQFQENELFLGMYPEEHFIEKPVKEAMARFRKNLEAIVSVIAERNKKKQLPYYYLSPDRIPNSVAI
Method: The LOX-5 assay was performed in assay buffer comprising: 50 mM Tris (pH 7.5), 2 mM EDTA, 2 mM CaCl2), 3 uM AA, 10 uM ATP, 10 uM H2DCFDA, and recombinant enzyme (50 mU per 20 ul reaction, as defined by manufacturer). Serially diluted compounds were prepared in DMSO in Echo qualified 384 well plates. An assay buffer was then prepared without AA and ATP supplemented with 20 uM H2DCFDA. 10 uL of the supplemented buffer was dispensed into control (no enzyme) wells in the black 384 well assay plate. Next, a 2× enzyme solution was prepared, comprising 100 mU LOX-5 enzyme in the supplemented assay buffer. 10 uL of the 2× enzyme solution was then dispensed into test wells in the black 384 well assay plate. Serially diluted compounds were added to the assay plate by acoustic dispensing (Labcyte 550). Control wells received DMSO only.
Next, the 2× substrate was prepared to comprise 6 uM arachidonic acid and 20 uM ATP in the assay buffer. 10 uL of the 2× substrate was then added to all wells in the assay plate. The plate was incubated for 20 min.
[formula] • where RFU100% is fluorescence in control samples without compound, RFU0% is fluorescence in control samples without LOX-5, and RFUcompound fluorescence in a sample with compound.
The calculated %-Inh values were plotted against compound concentration. To determine EC50 values, dose-response curves were fitted by a 4-parameter sigmoid inhibition model using XLFit® software (IDBS).

[1] = PBMC, human PBMCs, PHA-M 10 ug/mL 40 hr
[2] = recombinant enzyme, read-out: Inhibitory Activity EC50, 5-Lox
[3] = human PBMCs, PHA-M 10 ug/mL 40 hr

CCCCCc1cc(OC(C)=O)c(C/C=C(\C)CCC=C(C)C)c(O)c1OC(C)=O [Formula XLIII]
EC50 (IFNgamma; [1]): 1.13 µM | inhibitory activity on IL-10 (IL10): particular strong inhibitory activity | EC50 (IL10; [1]): 1.2 µM | EC50 (recombinant human LOX-5): 0.34 µM

CCCCCc1cc(OC)c(C/C=C(\C)CCC=C(C)C)c(O)c1OC [Formula XLII]
EC50 (IFNgamma; [1]): 4.1 µM | EC50 (IL10; [1]): > 10 µM | EC50 (recombinant human LOX-5): 0.21 µM

CCCCCC1=C(NC)C(=O)C(C/C=C(\C)CCC=C(C)C)=C(O)C1=O [Formula XLI]
EC50 (IFNgamma; [1]): 2.51 µM | inhibitory activity on IL-10 (IL10): particular strong inhibitory activity | EC50 (IL10; [1]): > 10 µM | EC50 (recombinant human LOX-5): 0.48 µM

CCCCCc1cc(O)c(C/C=C(\C)CCC=C(C)C)c(O)c1O [Formula XXXIX]
EC50 (IFNgamma; Homo sapiens, PBMC, 40 h): 1.85 µM | inhibitory activity on IL-10 (IL10): particular strong inhibitory activity | EC50 (IL10; Homo sapiens, PBMC, 40 h): 1.69 µM | EC50 (recombinant human LOX-5; [2]): 0.2 µM

Cannabigerol Quinone [Formula VI]
stronger inhibition of IFNγ compared to Cox-2 (IFNgamma): over 60 fold | EC50 (IFNgamma; [3]): 0.91 µM | EC50 (IL10; [3]): 1.1 µM | stronger inhibition for 5-Lox compared to Cox-2 (recombinant human LOX-5): over 200 fold | EC50 (recombinant human LOX-5; [2]): 0.27 µM

Reference: patent publication US20250073184A1, “CANNABIGEROQUINONE COMPOUNDS, COMPOSITIONS INCLUDING SUCH COMPOUNDS, AND USES OF SUCH COMPOUNDS AND COMPOSITIONS” (Juva Life, Inc., priority 2021, published 2025)
